This note sets out measurements from patent US20260138976A1 (Hoffmann-La Roche Inc., priority 2022, published 2026).

For assay [1], the system named is primary human T-cells. As to the kind of experiment: Proliferation assay (5 days, CellTiter-Glo, CD3-stimulated T-cells). The class given is cell-based. The settings on record: for Emax proliferation (% activation): CD3 condition, normalised to DMSO (neutral) and 20 μM reference compound A1 = 100%; for EC50: Homo sapiens, T-cell, 120 h, CD3-stimulated primary human T-cells, 5 days, CellTiter-Glo, fitted sigmoidal curve, read-out: Tcell Proliferation CD3 EC50. The method in brief:
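Proliferation read-out: ATP luminescence (CellTiter-Glo 2.0) at day 5 in expanded primary human T-cells on CD3 antibody-coated plates, with PBS-only plates as a counter screen. Compounds in 5–6 pt series (factor 3.333, top 20 or 10 μM final). Values are normalized to DMSO (neutral) and 20 μM reference A1 (100%), from sigmoidal fits.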
A general note: In ATP-based viability assays light output follows the ATP content of the culture.

Assay [2] concerns primary human T-cells. As to the kind of experiment: IL2 secretion measurements (24 h, CD3-stimulated T-cells, PBS counter screen). The settings on record: for Emax IL2 (% activation): CD3 condition, normalised to DMSO (neutral) and 20 μM reference compound A1 = 100%; for EC50: Homo sapiens, T-cell, CD3-stimulated primary human T-cells, IL2 secretion, fitted sigmoidal curve, read-out: Tcell IL2 CD3 EC50. The assay is classed as cell-based. The method in brief:
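IL-2 secretion was measured by ProQuantum or ELISA after 24 h culture of expanded human T-cells with compound, on CD3-antibody-coated plates or PBS counter-screen plates. Dosing used 5–6 points from a 20 or 10 μM final top at 3.333-fold steps in 0.2% DMSO. EC50/Emax were scaled between DMSO and 20 μM reference A1.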

For the compound `N[C@H]1CS(=O)(=O)c2cc(F)c(-c3nnc(N4CCC(F)(F)CC4)o3)cc2N(Cc2ccc(-c3noc(C(F)(F)F)n3)cc2)C1=O` [Example 5, (3R)-3-amino-7-[5-(4,4-difluoro-1-piperidyl)-1,3,4-oxadiazol-2-yl]-8-fluoro-1,1-dioxo-5-[[4-[5-(trifluoromethyl)-1,2,4-oxadiazol-3-yl]phenyl]methyl]-2,3-dihydro-1λ^6,5-benzothiazepin-4-one], in the assay on primary human T-cells [1], the “Emax proliferation (% activation)” value turned out to be 200 % activation and the EC50 is 0.12 µM. In the assay with primary human T-cells [2], the “Emax IL2 (% activation)” value turned out to be 537 % activation and the EC50 amounted to 0.323 µM.
On the same counts, the results for `CN1CCCC(F)(c2nnc(-c3ccc4c(c3)N(Cc3ccc(-c5ccc(C(F)(F)F)cn5)cc3)C(=O)[C@@H](N)CS4(=O)=O)o2)C1` (stereo partly drawn) [Example 51, (3R)-3-amino-7-[5-(3-fluoro-1-methyl-3-piperidyl)-1,3,4-oxadiazol-2-yl]-1,1-dioxo-5-[[4-[5-(trifluoromethyl)-2-pyridyl]phenyl]methyl]-2,3-dihydro-1λ^6,5-benzothiazepin-4-one] are 112 % activation, 0.883 µM, 135 % activation and 2.49 µM.
